Columns and labels:
[1] = in vivo; cited from earlier work
[2] = In-vivo pharmacokinetic analysis of calcined metal (hydr)oxide-docetaxel compositions, single oral administration; details: rat, 40 mg/kg

SMILES | bioavailability (%) [1] [%] | AUC(0-t) [2] [ng·h/mL] | Tmax [2] [h] | half-life [2] [h] | Cmax ([2]; Cmax, Docetaxel PO 40 mg/kg, rats) [ng/mL]
CC(=O)O[C@@]12CO[C@@H]1C[C@H](O)[C@@]1(C)C(=O)[C@H](O)C3=C(C)[C@@H](OC(=O)[C@H](O)[C@@H](NC(=O)OC(C)(C)C)c4ccccc4)C[C@@](O)([C@@H](OC(=O)c4ccccc4)[C@H]21)C3(C)C [Docetaxel] | 8 | 47.5 | 0.5 | 9.41 | 5.25
Cn1nnc2c(C(N)=O)ncn2c1=O [temozolomide] | 100 | – | – | – | –
CSc1ccc2c(c1)N(CCC1CCCCN1C)c1ccccc1S2 (stereo not drawn) [thioridazine] | 28 | – | – | – | –
CN(C)CCOc1ccc(/C(=C(/CCCl)c2ccccc2)c2ccccc2)cc1 [toremifene] | 100 | – | – | – | –
CC(=O)Nc1cccc(-n2c(=O)n(C3CC3)c(=O)c3c(Nc4ccc(I)cc4F)n(C)c(=O)c(C)c32)c1 [trametinib] | 72 | – | – | – | –

Reference: patent US20220323356A1, “METAL (HYDR)OXIDE COMPOSITE COMPRISING POORLY SOLUBLE DRUG, METHOD FOR PREPARING SAME, AND PHARMACEUTICAL COMPOSITION COMPRISING SAME” (priority 2020, published 2022)
